Drawing on patent US10093623B2, “Cyclic amides as MetAP-2 inhibitors” (MERCK PATENT GmbH, priority 2012, dated 2018), this text covers IC50 for 34 molecules.

pIC50: −log10 of the molar value.

The assay has as its target MetAP-2 (Homo sapiens, UniProt P50579). The assay is described as follows: MetAP-2 activity measurement (coupled enzymatic reactions, Met-Arg-Ser substrate, dianisidine detection at 450 nm). The assay is classed as biochemical. Conditions: Inhibition of MetAP-2; read-out: IC50 enzyme. How it is done:
MetAP-2 Activity Measurement
The MetAP-2 activity is determined by coupling enzymatic reactions. The tripeptide Met-Arg-Ser (MAS) is employed as substrate. The methionine liberated is firstly converted into Metox and H2O2 by L-aminooxidase (AAO). In the second step, the peroxidase (POD) with the aid of the H2O2 catalyses the oxidation of the leukodye dianisidine to dianisidineox, the increase of which is detected photometrically at 450 nm.
MetAP-2 activity can be recorded continuously as kinetics. The reaction scheme illustrates that one mol of dianisidineox is formed per mol of methionene. The MetAP-2 enzyme activity can therefore be calculated directly as A absorption per time unit. Qualification of the MetAP-2 activity (mol of Met/time unit) is possible with the aid of the dianisidineox extinction coefficient.
The change in extinction per time unit is depicted graphically and a slope calculation is carried out in the visually linear region of the reaction.

Chain of MetAP-2 (P50579 whole entry, species assumed): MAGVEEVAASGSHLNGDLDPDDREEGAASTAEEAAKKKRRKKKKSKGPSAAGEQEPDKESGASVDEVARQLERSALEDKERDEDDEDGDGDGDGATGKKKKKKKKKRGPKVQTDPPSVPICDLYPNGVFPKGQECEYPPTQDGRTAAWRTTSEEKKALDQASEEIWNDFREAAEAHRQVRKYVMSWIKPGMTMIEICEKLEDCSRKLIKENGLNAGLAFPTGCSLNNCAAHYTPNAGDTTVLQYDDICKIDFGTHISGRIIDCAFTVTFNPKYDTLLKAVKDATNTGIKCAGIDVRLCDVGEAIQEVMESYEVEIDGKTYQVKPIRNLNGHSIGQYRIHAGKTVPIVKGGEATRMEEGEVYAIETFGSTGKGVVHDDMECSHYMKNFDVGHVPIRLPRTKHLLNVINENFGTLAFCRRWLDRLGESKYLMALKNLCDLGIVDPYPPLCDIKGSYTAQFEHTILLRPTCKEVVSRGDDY

One may read the pIC50 as the negative decadic logarithm of the IC50, by convention in mol/L. With `O=C(NCc1cc(F)cc(Cl)c1)C1(O)CCN(CCc2c[nH]c3ccc(F)cc23)C1=O` (stereo not shown) [A219, N-(3-Chloro-5-fluorobenzyl)-1-[2-(5-fluoro-1H-indol-3-yl)ethyl]-3-hydroxy-2-oxopyrrolidine-3-carboxamide], the negative-log IC50 (pIC50) is 6.00 to 8.00. As for `CNC(=O)[C@H]1CC[C@H](CN2CCC(O)(C(=O)NCc3cc(F)cc(Cl)c3)C2=O)CC1` (stereo partly shown) [A278, N-(3-Chloro-5-fluorobenzyl)-3-hydroxy-1-(4-methylcarbamoyl-cyclohexylmethyl)-2-oxo-pyrrolidine-3-carboxamide], the figure is 6.00 to 8.00. Consider `CC(=O)Nc1ccc(N2CC[C@](O)(C(=O)NCCc3cc(F)cc(Cl)c3)C2=O)cn1` [A155, N-[2-(3-Chloro-5-fluorophenyl)-ethyl]-(S)-1-(6-acetylamino-pyridin-3-yl)-3-hydroxy-2-oxo-pyrrolidine-3-carboxamide], for which the pIC50 is 6.00 to 8.00. As for `O=C(NC1CCC1)c1cccc(N2CC[C@@](O)(C(=O)NCc3cc(F)cc(Cl)c3)C2=O)c1` [A164, N-(3-Chloro-5-fluorobenzyl)-(R)-1-(3-cyclobutylcarbamoyl-phenyl)-3-hydroxy-2-oxo-pyrrolidine-3-carboxamide], the figure is under 5.00; as for `O=C(NCc1cc(F)cc(Cl)c1)[C@]1(O)CCN(c2ccc(C(F)(F)F)nc2)C1=O` [A108, N-(3-Chloro-5-fluorobenzyl)-(R)-3-hydroxy-2-oxo-1-(6-trifluoromethylpyridin-3-yl)-pyrrolidine-3-carboxamide], under 5.00; as for `O=C1N(c2ccccc2)CCC1(O)CNCc1cccc(F)c1` (stereo not shown) [B48, 3-[(3-Fluorobenzylamino)-methyl]-3-hydroxy-1-phenyl-pyrrolidin-2-one], 5.00 to 6.00. With `O=C(NCc1cc(F)cc(Cl)c1)[C@@]1(O)CCN(OCc2ccccc2)C1=O` [B136, N-(3-Chloro-5-fluorobenzyl)-(S)-1-benzyloxy-3-hydroxy-2-oxo-pyrrolidine-3-carboxamide] the figure was 6.00 to 8.00. As for `CC(=O)Nc1ccc(N2CCC(O)(C(=O)NCCc3ccccc3C(F)(F)F)C2=O)cn1` (stereo not shown) [A143, N-[2-(2-Trifluoromethylphenyl)-ethyl]-1-(6-acetylaminopyridin-3-yl)-3-hydroxy-2-oxopyrrolidine-3-carboxamide], the figure is 6.00 to 8.00. Turning to `O=C1CCc2cc(N3CCC(O)(C(=O)NCCc4cc(F)cc(F)c4)C3=O)ccc2N1` (stereo not shown) [A199, N-[2-(3,5-Difluorophenyl)ethyl]-3-hydroxy-2-oxo-1-(2-oxo-1,2,3,4-tetrahydroquinolin-6-yl)-pyrrolidine-3-carboxamide], the negative logarithm of the IC50 (pIC50) is 6.00 to 8.00. As for `O=C1CCc2cc(N3CCC(O)(C(=O)NCc4cc(F)cc(Cl)c4)C3=O)cnc2N1` (stereo not shown) [A214, N-(3-Chloro-5-fluorobenzyl)-3-hydroxy-2-oxo-1-(7-oxo-5,6,7,8-tetrahydro-1,8-naphthyridin-3-yl)pyrrolidine-3-carboxamide], the figure is 6.00 to 8.00. With `CN(c1cccc(N2CC[C@](O)(C(=O)NCc3cc(F)cc(Cl)c3)C2=O)c1)S(C)(=O)=O` [A165, N-(3-Chloro-5-fluorobenzyl)-(S)-3-hydroxy-1-[3-(methane-sulfonylmethylamino)phenyl]-2-oxopyrrolidine-3-carboxamide] the figure was 6.00 to 8.00; with `O=C(NCc1cc(F)cc(Cl)c1)[C@@]1(O)CCN(c2ccc(C(F)(F)F)nc2)C1=O` [A99, N-(3-Chloro-5-fluorobenzyl)-(S)-3-hydroxy-2-oxo-1-(6-trifluoromethylpyridin-3-yl)-pyrrolidine-3-carboxamide], 6.00 to 8.00; with `O=C1CCc2cc(N3CC[C@@](O)(C(=O)NCc4cccc(F)c4)C3=O)ccc2N1` [B57, N-(3-Fluorobenzyl)-(R)-3-hydroxy-2-oxo-1-(2-oxo-1,2,3,4-tetrahydroquinolin-6-yl)-pyrrolidine-3-carboxamide], under 5.00. For the molecule `CC1CC(O)(C(=O)NCc2cc(F)cc(Cl)c2)C(=O)N1c1ccccc1` (stereo not shown) [A119, N-(3-chloro-5-fluorobenzyl)-3-hydroxy-5-methyl-2-oxo-1-phenylpyrrolidine-3-carboxamide], the pIC50 was 5.00 to 6.00. As for `O=C(NCCO)c1cccc(N2CC[C@](O)(C(=O)NCc3cc(F)cc(Cl)c3)C2=O)c1` [A88, N-(3-Chloro-5-fluorobenzyl)-(S)-3-hydroxy-1-[3-(2-hydroxy-ethylcarbamoyl)phenyl]-2-oxo-pyrrolidine-3-carboxamide], the pIC50 was 6.00 to 8.00.

As to `CN1CCN(C(=O)c2cc3cc(N4CC[C@](O)(C(=O)NCc5cc(F)cc(Cl)c5)C4=O)ccc3[nH]2)CC1` [B122, N-(3-Chloro-5-fluorobenzyl)-(S)-3-hydroxy-1-[2-(4-methyl-piperazin-1-carbonyl)-1H-indol-5-yl]-2-oxopyrrolidine-3-carboxamide], the pIC50 is 6.00 to 8.00.

In the case of `CC(=O)Nc1ccc(N2CCC(O)(C(=O)NCCc3ccccc3F)C2=O)cn1` (stereo not shown) [A175, N-[2-(2-Fluorophenyl)ethyl]-1-(6-acetylaminopyridin-3-yl)-3-hydroxy-2-oxopyrrolidine-3-carboxamide], the pIC50 was 6.00 to 8.00.

For the molecule `Cc1cc2cc(N3CC[C@@](O)(C(=O)NCc4cc(F)cc(Cl)c4)C3=O)cnc2[nH]1` [B61, N-(3-Chloro-5-fluorobenzyl)-(R)-3-hydroxy-1-(2-methyl-1H-pyrrolo[2,3-b]pyridin-5-yl)-2-oxo-pyrrolidine-3-carboxamide], the pIC50 is 5.00 to 6.00. As for `CC(C)(C)OC(=O)N1CCC(O)(C(=O)OCc2ccccc2)C1=O` (stereo not shown) [B51, 3-Benzyl 1-tert-butyl 3-hydroxy-2-oxopyrrolidine-1,3-dicarboxylate], the pIC50 is under 5.00. In the case of `O=C(NCCO)c1cc2cc(N3CC[C@](O)(C(=O)NCc4cc(F)cc(Cl)c4)C3=O)ccc2[nH]1` [B121, N-(2-hydroxyethyl)-5-[(S)-3-(3-chloro-5-fluorobenzyl-carbamoyl)-3-hydroxy-2-oxo-pyrrolidin-1-yl]-1H-indole-2-carboxamide], the pIC50 is 6.00 to 8.00.

In the case of `NC(=O)c1cc2cc(N3CC[C@@](O)(C(=O)NCc4cc(F)cc(Cl)c4)C3=O)ccc2[nH]1` [B79, 5-[(R)-3-(3-Chloro-5-fluorobenzylcarbamoyl)-3-hydroxy-2-oxopyrrolidin-1-yl]-1H-indole-2-carboxamide], the pIC50 was 5.00 to 6.00. With `O=C(NC1CCC1)c1cccc(N2CC[C@](O)(C(=O)NCc3cc(F)cc(Cl)c3)C2=O)c1` [A163, N-(3-Chloro-5-fluorobenzyl)-(S)-1-(3-cyclobutylcarbamoyl-phenyl)-3-hydroxy-2-oxo-pyrrolidine-3-carboxamide] the figure was 6.00 to 8.00; with `O=C(NCc1cc(F)cc(F)c1)C1(O)CCCN(CC2CCC2)C1=O` (stereo not shown) [A252, N-(3,5-Difluorobenzyl)-1-cyclobutylmethyl-3-hydroxy-2-oxopiperidine-3-carboxamide], 5.00 to 6.00; with `CCOC(=O)C1CCCC(N2CCC(O)(C(=O)NCc3cc(F)cc(Cl)c3)C2=O)C1` (stereo not shown) [A202, Ethyl 3-[3-(3-chloro-5-fluorobenzylcarbamoyl)-3-hydroxy-2-oxopyrrolidin-1-yl]-cyclohexanecarboxylate], 5.00 to 6.00. `O=C(NCc1cccc(F)c1)[C@]1(O)CCCN(CC2CCCCC2)C1=O` [A263, N-(3-fluorobenzyl)-(R)-1-cyclohexylmethyl-3-hydroxy-2-oxopiperidine-3-carboxamide]: the pIC50 was under 5.00. Consider `O=C(NCc1cc(F)cc(Cl)c1)[C@]1(O)CCN(Cc2ccccc2)C1=O` [A141, N-(3-Chloro-5-fluorobenzyl)-(R)-1-benzyl-3-hydroxy-2-oxo-pyrrolidine-3-carboxamide], for which the negative-log IC50 (pIC50) is under 5.00.

Consider `Cc1cc(N2CCC(O)(C(=O)NCc3cc(F)cc(Cl)c3)C2=O)cnc1N1CCOCC1=O` (stereo not shown) [A142, N-(3-Chloro-5-fluorobenzyl)-3-hydroxy-1-[5-methyl-6-(3-oxo-morpholin-4-yl)-pyridin-3-yl]-2-oxopyrrolidine-3-carboxamide], for which the pIC50 is 6.00 to 8.00. With `O=C(NCc1cc(F)cc(Cl)c1)C1(O)CCN(Cc2nc3ccccc3s2)C1=O` (stereo not shown) [A270, N-(3-Chloro-5-fluorobenzyl)-1-benzothiazol-2-ylmethyl-3-hydroxy-2-oxopyrrolidine-3-carboxamide] the figure was 6.00 to 8.00; with `O=C(NCCc1ccc(Oc2ccccc2)cc1)[C@@]1(O)CCN(c2ccccc2)C1=O` [A60, N-[2-(4-Phenoxyphenyl)ethyl]-(S)-3-hydroxy-2-oxo-1-phenyl-pyrrolidine-3-carboxamide], under 5.00; with `O=C1CCc2cc(N3CCCC(O)(CNCc4cc(F)cc(Cl)c4)C3=O)ccc2N1` (stereo not shown) [B68, 6-{3-[(3-Chloro-5-fluorobenzylamino)methyl]-3-hydroxy-2-oxopiperidin-1-yl}-3,4-dihydro-1H-quinolin-2-one], 5.00 to 6.00. For `NC(=O)c1cc(C(N)=O)cc(N2CCC(O)(C(=O)NCc3cc(F)cc(Cl)c3)C2=O)c1` (stereo not shown) [A130, 5-[3-(3-Chloro-5-fluorobenzylcarbamoyl)-3-hydroxy-2-oxopyrrolidin-1-yl]-isophthalamide], the pIC50 is 5.00 to 6.00. As for `OC1(CNCc2cc(F)cc(Cl)c2)CCN(Cc2ccccc2)C1` (stereo not shown) [B30, 1-Benzyl-3-[(3-chloro-5-fluorobenzylamino)methyl]-pyrrolidin-3-ol], the figure is under 5.00; as for `CC(=O)Nc1ccc(N2CC[C@@](O)(C(=O)NCCc3cc(F)cc(Cl)c3)C2=O)cn1` [A156, N-[2-(3-Chloro-5-fluorophenyl)-ethyl]-(R)-1-(6-acetylamino-pyridin-3-yl)-3-hydroxy-2-oxo-pyrrolidine-3-carboxamide], under 5.00. For the molecule `O=C(NCc1cc(F)cc(Cl)c1)[C@@]1(O)CCN(c2cc(C(F)(F)F)ccn2)C1=O` [B52, N-(3-Chloro-5-fluorobenzyl)-(S)-3-hydroxy-2-oxo-1-(4-trifluoromethylpyridin-2-yl)-pyrrolidine-3-carboxamide], the pIC50 is 6.00 to 8.00.
